Data: US6534075B1, “Antimicrobial and antiviral compositions and treatments for food surfaces” (Ecolab Inc., priority 1999, dated 2003)
Read-outs that look alike come from different tables or passages of the source. Marks after values point to notes of the source that are not given here.

Tests used:
Feline parvovirus = conditions: published results against Feline parvovirus, cited from earlier work
E. coli = assay: Log reduction of E. coli by liquid compositions, 30 second contact (Tables 4, 5); type: cell-based; conditions: for Log Reduction: E. coli; for E. Coli Log Reduction: single component alone, pH 3, 30 second contact time, vs untreated control
Text: Results recorded include the pH of the solution, the color of the solution and the log reduction in microbe. In Table 4, E. coli is used in all examples, while a variety of organisms (gram positive and gram negative bacteria, a yeast, a mold) are used in Table 5. [table] [table]

S. aureus [1] = assay: Log reduction of S. aureus by liquid compositions, 30 second contact (Table 5); type: cell-based; conditions: N-source:H2O2:KI 0:300:0 ppm, pH 5, 30 second contact
Text: (§1) Results recorded include the pH of the solution, the color of the solution and the log reduction in microbe. In Table 4, E. coli is used in all examples, while a variety of organisms (gram positive and gram negative bacteria, a yeast, a mold) are used in Table 5.

Z. bailii = assay: Log reduction of Z. bailii by liquid compositions, 30 second contact (Table 5); type: cell-based
P. expansum = assay: Log reduction of P. expansum by liquid compositions, 15 minute contact (Table 5); type: cell-based
Text: as §1

S. javiana = assay: Microbial reduction on Roma tomato surfaces, five minute submersion (Table 6); conditions: tomatoes submerged five minutes at 72° F., versus untreated control
Description: Specifically, comparison is made to the use of either sodium hypochlorite (bleach), hydrogen peroxide or peracetic acid.
Testing was performed on commercial Roma tomato surfaces using the test organism Salmonella javinia. For the pathogenic organisms, a 1:10 dilution of a 10^7 CFU/ml (colony forming units per ml) test system suspension was prepared. Whole tomatoes were placed into a plastic bag, and each bag was inoculated with a 10-mil. test system suspension, resulting in an inoculum level of […]. Bags are gently shaken for even distribution of the test system for five minutes. The produce types are then stored overnight at 4° C. Untreated controls were also prepared. Two-liter volumes of the test solutions were prepared in 4-liter beakers. Solutions were prepared in laboratory tap water to simulate industry conditions. The tomatoes were then exposed to the test solution by submersion for five minutes at 72° F. (about 22° C.). At the end of that time, the tomatoes were removed from the solution and thoroughly rinsed under fresh-running tap water. Fifty grams of the home produce (tomato), plus 100 ml buffered dilution water were placed into a stomacher bag. The tomatoes were massaged for 60 seconds. […] on TGE (Salmonella). Plates were incubated at 35° C. for 48 hours.

S. aureus [2] = assay: Food-preparation hard surface sanitizing comparison, S. aureus (Table 12); type: cell-based; conditions: actives conc. 300 ppm
Text: (§2) Table 12 compares formulas of the present invention with prior art examples of food-preparation hard surface sanitizing. […] [table]

E. coli ATCC 11229 = assay: Food-preparation hard surface sanitizing comparison, E. coli (Table 12); type: cell-based; conditions: actives conc. 300 ppm; 30 second exposure
Text: as §2

Total bacterial flora = assay: Meat carcass treatment, prerigor beef surfaces (Table 7); conditions: active antimicrobial 1000 ppm; carcass treated 30 seconds, drained 10 minutes
Description: Working Example 5 is similar to the previous example in that comparisons are made between the present invention and known commercial compositions for control of microorganisms on food surfaces. In this case, however, comparisons were made for meat carcass treatments.
Testing was performed on prerigor beef surfaces from a packing house. Total bacterial flora were tested. The carcasses were treated for 30 seconds and drained for 10 minutes. Test samples were isolated and plated for total […].

[3] = N-source:H2O2:KI 300:0:0 ppm, pH 7, 30 second contact

CCO [Ethanol]
Minimum Concentration (for 10-minute inactivation) (Feline parvovirus): 500,000 ppm

OO [Formula H2O2, hydrogen peroxide]
Log Reduction (E. coli; N-source:H2O2:KI 0:300:0 ppm, pH 5, 30 second contact): 0.2 log
E. Coli Log Reduction (E. coli): 0.2 log
Log Reduction (S. aureus [1]): 0.4 log
Log Reduction (Z. bailii; N-source:H2O2:KI 0:532:0 ppm, pH 3, 30 second contact): 0.1 log
Log Reduction (Z. bailii; N-source:H2O2:KI 0:532:0 ppm, pH 5, 30 second contact): 0.1 log
Log Reduction (Z. bailii; N-source:H2O2:KI 0:532:0 ppm, pH 7, 30 second contact): 0.1 log
Log Reduction (P. expansum; N-source:H2O2:KI 0:532:0 ppm, pH 5, 15 minute contact): 0.0* log
Log Reduction (S. javiana; active antimicrobial 80 ppm): <0.1 log
Log Reduction S. aureus (S. aureus [2]): 0.4 log
Log Reduction E. coli (E. coli ATCC 11229): 0.2 log

O=CCCCC=O [Glutaraldehyde]
Outcome noted in parentheses at the listed concentration (Feline parvovirus; 10-minute inactivation): 2-log
Minimum Concentration (for 10-minute inactivation) (Feline parvovirus; unit not given): 10,000

CC(C)O [IPA]
Minimum Concentration (for 10-minute inactivation) (Feline parvovirus): 500,000 ppm

[I-].[K+] [KI, potassium iodide]
E. Coli Log Reduction (E. coli): 0 log
Log Reduction (P. expansum; N-source:H2O2:KI 0:0:500 ppm, pH 5, 15 minute contact): 0.0* log

CCCCCCCCCCCCCCCC[n+]1ccccc1 [cetyl pyridinium chloride]
Log Reduction (Total bacterial flora): 0.5 log

C[N+](C)(C)CCO.[Cl-] [choline chloride]
Log Reduction (E. coli; [3]): 0.0 log
E. Coli Log Reduction (E. coli): 0 log
Log Reduction (Z. bailii; [3]): 0.0 log

CCCCCCCCCC[N+](C)(C)CCCCCCCCCC.[Cl-] [didecyl dimethyl ammonium chloride]
Log Reduction (Z. bailii; N-source:H2O2:KI 20:0:0 ppm, pH 3, 30 second contact): 0.1 log
Log Reduction (P. expansum; N-source:H2O2:KI 100:0:0 ppm, pH 7, 15 minute contact): 1.0* log

Oc1ccccc1-c1ccccc1 [o-phenylphenol G]
Minimum Concentration (for 10-minute inactivation) (Feline parvovirus): 100,000 ppm

CC(=O)OO [peracetic acid]
Log Reduction (S. javiana; active antimicrobial 80 ppm): 2.8 log

OCl [sodium hypochlorite]
Log Reduction (S. javiana; active antimicrobial 30 ppm): 0.3 log
Log Reduction (S. javiana; active antimicrobial 80 ppm): 1.9 log
Minimum Concentration (for 10-minute inactivation) (Feline parvovirus): 2,000 ppm

lecithin
E. Coli Log Reduction (E. coli): 0 log
